Laboratory results from ChEMBL document CHEMBL1862790, “Optimisation of fenarimol series for the treatment of Chagas disease”.

What was measured:
[1] = DNDI: Cytotoxicity against L-6 rat myoblasts from skeletal muscle cells; conditions: L6 rat skeletal muscle myoblast cells
Trypanosoma cruzi [2] = test: microbe, parasite or virus in culture; format: functional, organism-based, Tulahuen LacZ, Clone C4; conditions: Trypanosoma cruzi, Tulahuen LacZ, Clone C4
Trypanosoma cruzi [3] = test: microbe, parasite or virus in culture; format: functional, Tulahuen LacZ, Clone C4; conditions: Trypanosoma cruzi, Tulahuen LacZ, Clone C4

| IC50 (Trypanosoma cruzi [2]) [nM] | IC90 (Trypanosoma cruzi [3]) [nM] | Structure (SMILES) | IC50 [1] [µM] | IC50 ([1]; IC50) [µM] |
| --- | --- | --- | --- | --- |
| 330 | 880 | CC(C)CS(=O)(=O)N1CCC(NC(c2ccc(C(F)(F)F)cc2)c2cnccn2)CC1 (stereo unspecified) |  | > 100 |
| 3650 | 7670 | O=S(=O)(NC(c1ccc(C(F)(F)F)cc1)c1cnccn1)c1ccccc1 (stereo unspecified) |  | > 100 |
| 45 | 100 | COc1ccccc1N1CCN(C(c2cccnc2)c2ccc(Cl)cc2F)CC1 (stereo unspecified) |  | 59.9 |
| 8910 | > 10000 | CC(C)CC(=O)NC(c1ccc(C(F)(F)F)cc1)c1cnccn1 (stereo unspecified) |  | > 100 |
| 6520 | > 10000 | OC1CCN(C(c2ccc(C(F)(F)F)cc2)c2cnccn2)CC1 (stereo unspecified) |  | > 100 |
| 320 | 910 | O=C(c1ccccc1)N1CCC(NC(c2ccc(C(F)(F)F)cc2)c2cnccn2)CC1 (stereo unspecified) |  | > 100 |
| 210 | 770 | O=S(=O)(Cc1ccccc1)N1CCC(NC(c2ccc(C(F)(F)F)cc2)c2cnccn2)CC1 (stereo unspecified) |  | > 100 |
| 200 | 540 | O=C(C1CCCCC1)N1CCC(NC(c2ccc(C(F)(F)F)cc2)c2cnccn2)CC1 (stereo unspecified) |  | 83.8 |
| > 1000 | > 1000 | CON=C(c1ccc(C(F)(F)F)cc1)c1cccnc1 |  | 70.3 |
| 270 | 660 | CC(C)CC(=O)N1CCC(NC(c2ccc(C(F)(F)F)cc2)c2cnccn2)CC1 (stereo unspecified) |  | > 100 |
| 970 | 2760 | CS(=O)(=O)N1CCC(NC(c2ccc(C(F)(F)F)cc2)c2cnccn2)CC1 (stereo unspecified) |  | > 100 |
| > 1000 | > 1000 | O=S(=O)(NC(c1ccc(C(F)(F)F)cc1)c1cnccn1)c1ccc(Cl)cc1 (stereo unspecified) |  | 56.4 |
| 470 | 850 | O=C(C1CC1)N1CCC(NC(c2ccc(C(F)(F)F)cc2)c2cnccn2)CC1 (stereo unspecified) |  | > 100 |
| > 10000 | > 10000 | CS(=O)(=O)NC(c1ccc(C(F)(F)F)cc1)c1cnccn1 (stereo unspecified) |  | > 100 |
| 35 | 200 | CC(C)Oc1ccc(C(c2cccnc2)N2CCN(C(=O)C(C)C)CC2)cc1 (stereo unspecified) |  | > 100 |
| 390 | 740 | FC(F)(F)c1ccc(C(NCC2CCCCC2)c2cnccn2)cc1 (stereo unspecified) |  | 59.2 |
| 500 | 890 | CC1(C)COC(c2cccc(C(O)(c3ccc(Cl)cc3)c3cncnc3)c2)=N1 (stereo unspecified) |  | > 100 |
| 570 | 970 | O=S(=O)(C1CCCCC1)N1CCC(NC(c2ccc(C(F)(F)F)cc2)c2cnccn2)CC1 (stereo unspecified) |  | 62.6 |
| 480 | 820 | CN(CC1CCCCC1)C(c1ccc(C(F)(F)F)cc1)c1cnccn1 (stereo unspecified) |  | 55.6 |
| > 1000 | > 1000 | CCS(=O)(=O)NC(c1ccc(C(F)(F)F)cc1)c1cnccn1 (stereo unspecified) |  | > 100 |
| > 1000 | > 1000 | CC(C)c1ccc(S(=O)(=O)NC(c2ccc(C(F)(F)F)cc2)c2cnccn2)cc1 (stereo unspecified) |  | 60.1 |
| 2110 | 5910 | Cc1cnc(C(O)(c2ccc(Cl)cc2)c2cncnc2)cn1 (stereo unspecified) |  | > 100 |
| > 1000 | > 1000 | CON=C(c1ccc(C(F)(F)F)cc1)c1cnccn1 |  | > 100 |
| 26 | 110 | N#Cc1ccc(C(O)(c2ccc(Cl)cc2)c2cccnc2)c(F)c1 (stereo unspecified) |  | > 100 |
| 58 | 140 | CC(C)(C)OC(=O)N1CCC(NC(c2ccc(C(F)(F)F)cc2)c2cnccn2)CC1 (stereo unspecified) |  | 62.8 |

| IC50 (Trypanosoma cruzi [2]) [nM] | IC90 (Trypanosoma cruzi [3]) [nM] | Structure (SMILES) | IC50 [1] [µM] | IC50 ([1]; IC50) [µM] |
| --- | --- | --- | --- | --- |
| > 1000 | > 1000 | O=S(=O)(Cc1ccccc1)NC(c1ccc(C(F)(F)F)cc1)c1cnccn1 (stereo unspecified) |  | > 100 |
| 52 | 450 | OC(c1ccc(Cl)cc1)(c1cncnc1)c1ccc(Cl)cc1F (stereo unspecified) |  | 54.1 |
| 1010 | 3410 | CN(C)C(=O)C1CCN(C(c2ccc(C(F)(F)F)cc2)c2cnccn2)CC1 (stereo unspecified) |  | > 100 |
| > 1000 | > 1000 | O=S(=O)(NC(c1ccc(C(F)(F)F)cc1)c1cnccn1)c1ccc(C(F)(F)F)cc1 (stereo unspecified) |  | 59.9 |
| 288 | 600 | CSc1ncc(C(O)(c2ccc(Cl)cc2)c2cccnc2)cn1 (stereo unspecified) |  | > 100 |
| > 1000 | > 1000 | CN(C)CCOc1ncc(C(O)(c2ccc(Cl)cc2)c2cccnc2)cn1 (stereo unspecified) |  | > 100 |
| 59 | 160 | N#Cc1ccc(C(O)(c2ccc(Cl)cc2)c2cccnc2)cc1 (stereo unspecified) |  | > 100 |
| 160 | 400 | CC(C)(C)OC(=O)NC1CCN(C(c2ccc(C(F)(F)F)cc2)c2cnccn2)CC1 (stereo unspecified) |  | 56.7 |
| 170 | 320 | O=S(=O)(c1ccccc1)N1CCC(NC(c2ccc(C(F)(F)F)cc2)c2cnccn2)CC1 (stereo unspecified) |  | > 100 |
| 330 | 910 | O=S(=O)(c1ccc(Cl)cc1)N1CCC(NC(c2ccc(C(F)(F)F)cc2)c2cnccn2)CC1 (stereo unspecified) |  | > 100 |
| > 1000 | > 1000 | O=C(NC(c1ccc(C(F)(F)F)cc1)c1cnccn1)c1ccccc1 (stereo unspecified) |  | > 100 |
| 660 | 790 | NC(=O)c1ccc(C(O)(c2ccc(Cl)cc2)c2cccnc2)c(F)c1 (stereo unspecified) |  | > 100 |
| 3050 | 7810 | CC(=O)N1CCC(NC(c2ccc(C(F)(F)F)cc2)c2cnccn2)CC1 (stereo unspecified) |  | > 100 |
| > 10000 | > 10000 | CC(C)C(=O)NC(c1ccc(C(F)(F)F)cc1)c1cnccn1 (stereo unspecified) |  | > 100 |
| 800 | 2100 | CC(C)CNC(c1ccc(C(F)(F)F)cc1)c1cnccn1 (stereo unspecified) |  | > 100 |
| 251 | 650 | OC(c1ccc(Cl)cc1)(c1cncnc1)c1cscn1 (stereo unspecified) |  | > 100 |
| > 1000 | > 1000 | CC(C)CS(=O)(=O)NC(c1ccc(C(F)(F)F)cc1)c1cnccn1 (stereo unspecified) |  | > 100 |
| > 10000 | > 10000 | O=C(NC(c1ccc(C(F)(F)F)cc1)c1cnccn1)C1CC1 (stereo unspecified) |  | > 100 |
| 140 | 500 | OC(c1ccc(Cl)cc1)(c1cccnc1)c1cncs1 (stereo unspecified) |  | > 100 |
| 110 | 220 | FC(F)(F)c1ccc(C(NCC2CCCCC2)c2cccnc2)cc1 (stereo unspecified) |  | 54 |
| 1570 | 4790 | O=C(NC(c1ccc(C(F)(F)F)cc1)c1cnccn1)C1CCCCC1 (stereo unspecified) |  | > 100 |
| 62 | 220 | CC(C)C(=O)N1CCN(C(c2cccnc2)c2ccc(Cl)cc2F)CC1 (stereo unspecified) |  | > 100 |
| > 10000 | > 10000 | CC(=O)NC(c1ccc(C(F)(F)F)cc1)c1cnccn1 (stereo unspecified) |  | > 100 |
| 6410 | > 10000 | NC(=O)C1CCN(C(c2ccc(C(F)(F)F)cc2)c2cnccn2)CC1 (stereo unspecified) |  | > 100 |

| Structure (SMILES) | IC50 (Trypanosoma cruzi [2]) [nM] | IC90 (Trypanosoma cruzi [3]) [nM] | IC50 [1] [µM] | IC50 ([1]; IC50) [µM] |
| --- | --- | --- | --- | --- |
| CC(C)Oc1ccc(C(O)(c2cccnc2)c2ccccc2F)cc1 (stereo unspecified) | 3.3 | 240 | 74 |  |
| OC(c1ccc(C(F)(F)F)cc1)(c1cccnc1)c1ccccc1F (stereo unspecified) | 22 | 210 | > 100 |  |
| Fc1ccccc1C(c1ccc(C(F)(F)F)cc1)c1cccnc1 (stereo unspecified) | 150 | 510 | 64 |  |
